Experiment: Particle size and morphology by transmission electron microscopy (TEM)
Type: physicochemical
Protocol: Precipitation of beclomethasone was carried out by modifying a method published earlier, where the drug was crystallised either in pure water or in the presence of a surfactant, Tween-80 (Wang et al. 2007^xi, Matteucci et al., 2006^xii). 34.8 mM beclomethasone dipropionate (BDB, MW 521.1) solution was prepared by dissolving the BDP in methanol. 0.5 ml of BDP solution was poured into 20 ml of pure deionized water with 0-0.15 wt-% (0-208.3 μM) HFBII. The resulting aqueous solution had 0.05 wt-% BDP. Both solutions were filtered with 0.2 μm syringe filter to remove possible impurities prior to use. The receiving liquid was stirred vigorously with a magnetic stirrer and temperature of the solution was controlled by keeping the sample in an ice bath or in room temperature during the precipitation. The precipitate was observed as a turbid solution immediately after BDP addition.
Transmission electron microscopy (TEM): 20 min after precipitation 20 μl of the nanoparticle dispersions were dried on formvar film-coated copper grids with mesh size 300.
The synthesis was done as in the earlier section, except that the drug used was itraconazole. Mass ratios of 2:1, 1:1 and 1:2 of HFBII:itraconazole were tested. TEM was used to study the size and morphology of the particles. […] Monodispersity increased with increasing HFBII amount. […]

crystals formed (size and habit) (precipitated from methanol into water without HFBII): a few micrometer long needles
particle size (precipitated with HFBII at room temperature, TEM): several micrometers
Structure (SMILES): CCC(=O)OCC(=O)[C@@]1(OC(=O)CC)[C@@H](C)C[C@H]2[C@@H]3CCC4=CC(=O)C=C[C@]4(C)[C@@]3(Cl)[C@@H](O)C[C@@]21C [BDP, beclomethasone dipropionate]
